Results taken from patent US20110098177A1, “METHODS AND COMPOSITIONS OF PLANT MICRONUTRIENTS” (NOVUS INTERNATIONAL INC., priority 2006, published 2011).

How the values were obtained:
Format in all cases: in vivo
Conditions in all cases: in vivo
Aristotle bell pepper = test system: Aristotle bell pepper
Procedure: (§1) The following experiments were performed in a green house during the fall of 2007 at GCREC, Balm, University of Florida. Fifteen products, at 3 different application rates were examined. The plot size was 2-gallon pots. Crop set-up, procedures and variables were as follows.
(§2) Transplants of ‘Florida-47’ tomato and ‘Aristotle’ bell pepper plants in the 4-true leaf stage (about 6 inches tall) were planted in 2-gal pots on Aug. 27, 2007. Pots were filled with a commercially available planting medium. This medium was selected based on the mineral composition of the products to be applied without providing significant nutritional inputs to the crops. Irrigation was provided with drip lines delivering between 0.50 and 0.33 gal/day/pot for tomato and bell pepper, respectively, and the crops were irrigated three times per day. No foliar pesticides were necessary.
(§3) There were four control treatments corresponding to each target micronutrient in which non-Fe, non-Mn, non-Zn or non-Cu pots received all other essential nutrients under non-limiting conditions.
(§4) Treatments were applied at three rates (high, medium and low) obtained from the estimated concentration of Zn, Fe, Cu, and Mn foliarly-applied in tomato and bell pepper in field situations (Table 1). Products were weighed and dissolved in 200 ml of deionized water with a non-ionic surfactant and applied to the newly-matured open leaves of each crop at 3 and 7 weeks after transplant (WAT). Treated pots were isolated during application to avoid cross-contamination of other treatments.
(§5) Medium nutrient concentration was determined 1 week before treatment. The mineral composition of the medium was 26.8 ppm NH4—N, 49 ppm NO3—N, 15.8 ppm P, 91.2 ppm K, 82.3 ppm Ca, 58.2 ppm Mg, 23.9 ppm Na, 125.6 ppm S, 1.33 ppm Fe, 0.39 ppm Mn, 0.35 ppm Zn, 0.05 pp, Cu, 0.04 ppm B, 0 ppm Mo, 0.73 ppm Al, and 12.1 ppm Si. The pH of the medium was 5.36 and the electric conductivity was 1.38 mS/cm. The foliar tissue analysis was performed at 6 WAT and the concentration of N, P, K, Mg, Ca, S, B, Zn, Mn, Fe, and Cu was determined by a commercial laboratory. Plant toxicity was determined at 4 WAT by using a 0-10 visual scale, where 0=no visible damage and 10=total plant death. Marketable fruit weight was collected 2 times in bell pepper and 4 times in tomato following USDA standards.
(§6) Data were analyzed using a general linear model, and means were separated using orthogonal contrasts at the 5% significance level.

Florida-47 tomato = test system: Florida-47 tomato
Procedure: as §1, §2, §3, §4, §5, §6

Tygress tomato plants [1] = experiment: Foliar nutrient concentration 2 weeks after treatment, greenhouse tomato (Examples 4-6)
Procedure: (§7) The following experiments were performed in a green house during the fall of 2008 and spring of 2009 at GCREC, Balm, University of Florida. Crop set-up, procedures and variables were as follows.
(§8) Transplants of Tygress' tomato plants were planted in 2-gallon pots filled with commercial planting medium with nutrient concentration of Fe, Zn, Mn, Cu being negligible and insufficient for crop growth. Irrigation and non-micronutrient fertilizer were provided daily through microsprinklers at recommended rates for tomato production in Florida. No pesticides were used. Treatments were as described in Tables 4, 5 and 6 below.
(§9) Treatments were applied at 5 WAT (weeks after transplanting) using a water volume of 200 mL/plant. A non-ionic surfactant was added. Foliar tissue analysis was performed at 3 and 7 WAT on the non-applied newest leaves. The concentrations of N, P, K, Mg, Ca, B, Zn, Mn, Fe, and Cu in the foliar tissue were determined from foliar analysis by a commercial laboratory at 2 weeks before treatment and again at 2 weeks after treatment.
(§10) Deionized water was used for foliar applications, and other nutrients were applied as appropriate under non-limiting conditions. Marketable fruit were collected three times during the growing season, starting at 10 WAT (5 weeks after the initial treatment). Tomato fruit was graded as extra-large, large and medium. Non-marketable fruit were harvested and number and weight recorded but not sized.
(§11) Experimental design was a randomized complete block design with 6 replications. Data were analyzed using a general linear model, and means were separated using an LSD test at the 5% significance level.

Tygress tomato plants [2] = experiment: Yields of tomato fruits, greenhouse (Examples 4-6)
Procedure: as §7, §8, §9, §10, §11

Tygress tomato plants [3] = experiment: Foliar nutrient concentration at 6 WAT, open-field tomato (Examples 7-10)
How it was run: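 Open-field Florida trial, spring 2008: transplants at 4-true-leaf stage on drip-irrigated raised beds were foliar-sprayed at 3 and 5 WAT (BIOX-CM at 4 and 5 WAT) at 60 gal/acre with non-ionic surfactant. Most recent mature leaves were sampled at 6 WAT. Tomato fruit was USDA-graded and analysed for minerals.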

[4] = test system: Patriot bell pepper plants; experiment: Foliar nutrient concentration at 6 WAT, open-field bell pepper (Examples 7-10)
Procedure: (§12) The following experiments were performed in open-field plots during the spring of 2008 at GCREC, Balm, University of Florida. Four products delivering Zn (BIOX-Z), Mn (BIOX-M), Cu (BIOX-Cu), and Fe (BIOX-Fe) were compared to other micronutrient supplement formulations in tomato and bell pepper plants.
(§13) The plot sizes for the tomato plants were 30-ft plots (15 plants per plot) and 15-ft plots were used for the bell pepper plants (30 plants per plot). Crop set-up, procedures and variables were as follows.
(§14) Transplants of ‘Tygress’ tomato plants and ‘Patriot’ bell pepper plants in the 4-true leaf stage (about 6 inches tall) were planted in raised beds in open-field plots. The cross-section of each raised bed was 28 inches wide at the top, 32 inches wide at the base, and 8 inches tall. Irrigation and non-micronutrient fertilizer were provided daily through two drip lines per bed (0.45 gal/100 ft bed/min) at recommended rates for tomato and bell pepper production in Florida. […] The height of the plants for each of the treatment groups was measured at 3 weeks after transplantation (WAT), just prior to treatment with the experimental foliar fertilizers.
(§15) All foliar fertilizers except BIOX-CM were applied to the various treatment groups at 3 weeks after transplantation (WAT) and again at 5 WAT. The BIOX-CM treatment was applied at 4 and 5 WAT. The working water volume was 60 gal/acre and a non-ionic surfactant (Ad-Spray 80) was added in the amount of 2 pints/100 gal water. All plots were sprayed with sprayers pressurized at 25 psi and the canopies of both crops were covered with the micronutrient solutions. Treated plots were isolated during foliar fertilizer application to avoid the cross-contamination of other treatments on adjoining plots.
(§16) Leaf samples were collected from the most recent mature leaves from each plant at 6 WAT (2 weeks after initial treatment). Foliar tissue analysis was performed by a commercial laboratory to determine the concentration of N, P, K, Mg, Ca, B, Zn, Mn, Fe, and Cu. Tomato marketable fruit weights were collected at 10 and 12 WAT, and the fruits were graded according to USDA standards. Pepper marketable fruit weights were determined beginning at 5 WAT over 5 weekly harvests. Fruit mineral analysis (N, P, K, Mg, Ca, B, Zn, Mn, Fe, and Cu) was performed on samples from the tomato harvest.
(§17) The experimental design was a randomized complete block design with 5 replications for each treatment. All comparison data were analyzed using a general linear model and the means of each treatment were separated with a Fisher's protected LSD test at the 5% significance level.

Tygress tomato plants [5] = experiment: Marketable yield, open-field tomato (Examples 7-10)
Procedure: as §12, §13, §14, §15, §16, §17

[6] = test system: Patriot bell pepper plants; experiment: Marketable yield, open-field bell pepper (Examples 7-10)
Procedure: as §12, §13, §14, §15, §16, §17

Tygress tomato plants [7] = experiment: Nutrient concentration of tomato fruits at 10 WAT, open field (Examples 7-10)
Procedure: as §12, §13, §14, §15, §16, §17

O=S(=O)([O-])[O-].[Zn+2] [BIOX-INZ, zinc sulfate]
Pepper toxicity (Aristotle bell pepper): 0
Tomato toxicity (Florida-47 tomato): 0
B concentration in tomato leaves (Tygress tomato plants [1]): 24 ppm
Cu concentration in tomato leaves (Tygress tomato plants [1]): 5 ppm
Fe concentration in tomato leaves (Tygress tomato plants [1]): 97 ppm
Foliar Zn concentration (Tygress tomato plants [1]): 768 a ppm
K concentration in tomato leaves (Tygress tomato plants [1]): 3.5%
Mg concentration in tomato leaves (Tygress tomato plants [1]): 0.3%
Mn concentration in tomato leaves (Tygress tomato plants [1]): 55 ppm
N concentration in tomato leaves (Tygress tomato plants [1]): 3.6%
P concentration in tomato leaves (Tygress tomato plants [1]): 0.4%
Marketable yield (Tygress tomato plants [2]): 3.7 a lb/plant
Foliar B concentration of tomato plants (Tygress tomato plants [3]): 41 ppm
Foliar Cu concentration of tomato plants (Tygress tomato plants [3]): 358 ppm
Foliar Fe concentration of tomato plants (Tygress tomato plants [3]): 71 ppm
Foliar K concentration of tomato plants (Tygress tomato plants [3]): 5.7%
Foliar Mg concentration of tomato plants (Tygress tomato plants [3]): 0.58%
Foliar Mn concentration of tomato plants (Tygress tomato plants [3]): 231 ppm
Foliar N concentration of tomato plants (Tygress tomato plants [3]): 4.8%
Foliar P concentration of tomato plants (Tygress tomato plants [3]): 0.18%
Foliar Zn concentration of tomato plants (Tygress tomato plants [3]): 323 ab ppm
Foliar Zn concentration of tomato plants, statement (Tygress tomato plants [3]): highest foliar concentration of Zn
Foliar B concentration of bell pepper plants [4]: 57 ppm
Foliar Cu concentration of bell pepper plants [4]: 385 ppm
Foliar Fe concentration of bell pepper plants [4]: 116 ppm
Foliar K concentration of bell pepper plants [4]: 3.2%
Foliar Mg concentration of bell pepper plants [4]: 0.53%
Foliar Mn concentration of bell pepper plants [4]: 303 ppm
Foliar N concentration of bell pepper plants [4]: 3.9%
Foliar P concentration of bell pepper plants [4]: 0.22%
Foliar Zn concentration of bell pepper plants [4]: 64 b ppm
Marketable yield, Tomato (Tygress tomato plants [5]): 15.6 ton/acre
Marketable yield, Bell Pepper [6]: 6.9 ton/acre
B concentration of tomato fruits (Tygress tomato plants [7]): 21 ppm
Cu concentration of tomato fruits (Tygress tomato plants [7]): 21 ppm
Fe concentration of tomato fruits (Tygress tomato plants [7]): 85 ppm
K concentration of tomato fruits (Tygress tomato plants [7]): 7.5%
Mg concentration of tomato fruits (Tygress tomato plants [7]): 0.34%
Mn concentration of tomato fruits (Tygress tomato plants [7]): 38 ppm
N concentration of tomato fruits (Tygress tomato plants [7]): 4.2%
P concentration of tomato fruits (Tygress tomato plants [7]): 0.59%
Zn concentration of tomato fruits (Tygress tomato plants [7]): 496 ppm
